{"source": "patent US7745569B2", "about": "“Amyloid specific binding peptides and detecting abeta peptide” (The Regents of the University of California, priority 2003, dated 2010)", "key": {"[1]": {"assay": "Uptake of peptide into brain, liver and kidney after tail vein injection", "details": "mouse, i.v. tail vein, 100 μL of 1 mg/mL; percentage relative to peptide in serum; SD, n=4", "description": "(§1) Peptides were injected in sterile Tris-buffered saline, pH 7.4, with 1 mM CaCl2 and 1 mM MgCl2. 4 animals were injected for each condition. Animals were then sacrificed after one minute or two minutes. Immediately upon sacrifice, blood and organs were harvested. To quantitate peptide uptake, brain, liver, and kidney were washed and the tissues lysed by homogenization in doubly distilled water. Organs and blood were centrifuged at 13000 g to collect lysate. Organ lysates or serum were then immobilized on ELISA plates that had been coated with nitrocellulose. Some tissue and serum samples were spiked with known amounts of purified peptide to verify levels of peptide immobilization in different sample types. […] The levels of biotinylated peptide immobilized on ELISA plates was quantitated by binding of alkaline phosphatase-conjugated streptavidin. Levels of streptavidin binding were determined by development with para-nitrophenylphosphate, as in Kang et al. (Neurobiology of Disease 14:146-156 (2003))."}, "[2]": {"details": "mouse, in vivo, iv", "description": "as §1"}, "[3]": {"target": "T1, amyloid form of Aβ1-40 peptide (Homo sapiens, UniProt P05067, R676K/Y681T)", "T1 construct": "purchased Bachem (Torrence, Calif.)", "assay": "Staining of Aβ1-40 amyloid by phage clones", "type": "binding", "details": "10^11 PFU/ml phage; anti-M13 antibody/alkaline phosphatase detection", "method": "Staining and blotting with phage: 10^11 PFU (plaque forming units)/ml of various phage clones were incubated with the amyloid form of Aβ1-40 peptide. Aβ amyloid was made by incubating peptide in TBS (pH 7.4) for 7 days on Falcon 24-well tissue culture wells. After washing, bound phage were visualized by incubation with biotinylated anti-M13 antibody and alkaline phosphatase-conjugated streptavidin, followed by incubation for equivalent times in 5-bromo-4-chloro-3-indolyl phosphate (BCIP) and nitroblue tetrazolium (NBT)."}, "Aβ1-40 amyloid": {"target": "T2, Aβ1-40 amyloid (Homo sapiens, UniProt P05067, R676K/Y681T)", "T2 construct": "purchased Bachem (Torrence, Calif.)", "type": "binding", "details": "immobilized Aβ1-40 amyloid, ELISA"}, "[4]": {"tested_on": "amyloid plaques in Alzheimer's disease brain", "assay": "Staining of human brain sections (AD and normal) with Thio-Aβ, Thio and synthetic peptide", "type": "binding", "method": "Staining of human brain with recombinant Thio-Aβ-protein and synthetic peptides: Normal and AD brain samples were obtained from the UCSD Alzheimer's Research Center (La Jolla, Calif.). Sections from a non-AD amyloidosis patient were obtained from the Department of Pathology (UCSD). Paraffin-embedded samples of cortex or other tissues were sectioned at 10 μm and mounted on glass slides. […] Binding was determined by subsequent staining with anti-Thio antibody and anti-mouse IgG coupled to alkaline phosphatase as above. After washing, staining was developed using 5-bromo-4-chloro-3-indolyl-phosphate and nitroblue tetrazolium for identical periods of time. All washes and incubations were done in phage buffer. The existence of amyloid plaques was confirmed by binding of anti-Aβ monoclonal antibody (2066) to sections from the same brain samples. No significant staining was ever observed with secondary antibody alone. Background staining was allowed to develop to the point where cells in the section were evident.\nFor staining with synthetic peptide, tissue sections from AD and non-AD brain, as well as from brain, kidney, small bowel, large bowel, and prostate from a non-AD patient with amyloidosis, were cut and prepared as above. Biotinylated peptide ([…]) (SEQ ID NO:4) was added in phage buffer for 1 hour at concentrations ranging from 0.1-10 μM. Sections were washed with phage buffer, incubated with streptavidin coupled to alkaline phosphatase, washed and developed as above. […] Congo Red or hematoxylin and eosin staining was done to confirm the presence of amyloid in amyloidosis sections."}}, "note": "Entries after “also recorded” stand apart in the source; their conditions may differ. Positions of bridges follow the written chain, without caps; N, C: chain ends. Residues, ends and D or L forms follow the SMILES beside them. No end group written: not given here. *: point of attachment. Biotin = O=C1N[C@H]2[C@H](CS[C@H]2CCCCC(=O)*)N1"}
{"compound": "CC(C)C[C@@H]1NC(=O)[C@H](CCCNC(=N)N)NC(=O)[C@H](Cc2c[nH]c3ccccc23)NC(=O)[C@H](CCCNC(=N)N)NC(=O)CNC(=O)CNC(=O)[C@H](CCCCN)NC(=O)CNC(=O)[C@H](Cc2c[nH]c3ccccc23)NC(=O)[C@H](CC(=O)O)NC(=O)[C@@H](NC(=O)[C@H](CCC(=O)O)NC(=O)[C@H](C)NC(=O)CCCC[C@@H]2SC[C@@H]3NC(=O)N[C@@H]32)CSSC[C@@H](C(=O)NCC(=O)N2CCC[C@H]2C(=O)O)NC(=O)[C@H](C)NC(=O)[C@H](CCC(=O)O)NC(=O)[C@H]([C@@H](C)O)NC(=O)[C@H](CCCCN)NC(=O)CNC(=O)[C@H](CO)NC(=O)[C@H](C)NC(=O)CNC(=O)[C@@H]2CCCN2C(=O)[C@H](Cc2c[nH]c3ccccc23)NC1=O", "note": "(Biotin-AECDWGKGGRWRLWPGASGKTEACGP-OH; disulfide 3-24 (inferred); C-terminus assumed)", "values": [{"measurement": "% uptake/min, Kidney", "setting": "[1]", "value": "0.16 ± 0.02", "unit": "% uptake/min"}]}
{"compound": "CC(C)C[C@H](NC(=O)[C@H](CCCNC(=N)N)NC(=O)[C@H](Cc1c[nH]c2ccccc12)NC(=O)[C@H](CCCNC(=N)N)NC(=O)CNC(=O)CNC(=O)[C@H](CCCCN)NC(=O)CNC(=O)[C@H](Cc1c[nH]c2ccccc12)NC(=O)[C@H](CC(=O)O)NC(=O)CCCC[C@@H]1SC[C@@H]2NC(=O)N[C@@H]21)C(=O)N[C@@H](Cc1c[nH]c2ccccc12)C(=O)N1CCC[C@H]1C(=O)NCC(=O)N[C@@H](C)C(=O)N[C@@H](CO)C(=O)NCC(=O)N[C@@H](CCCCN)C(=O)N[C@H](C(=O)N[C@@H](CCC(=O)O)C(=O)N[C@@H](C)C(=O)O)[C@@H](C)O", "note": "(Biotin-DWGKGGRWRLWPGASGKTEA-OH)", "values": [{"measurement": "crossing of the blood-brain barrier (in words)", "setting": "[2]", "value": "did not cross the blood-brain barrier"}]}
{"compound": "DWGKGGRWRLWPGASGKTEA", "values": [{"measurement": "staining of Aβ1-40 amyloid by phage clone", "setting": "[3]", "value": "identified both small and large (0.5-50 μm) accumulations of Aβ1-40 amyloid; also recorded: stained Aβ1-40 amyloid"}]}
{"compound": "PGRSPFTGKKLFNQEFSQDQ", "values": [{"measurement": "staining of Aβ1-40 amyloid by phage clone", "setting": "[3]", "value": "stained Aβ1-40 amyloid aggregates more poorly, but still stained well above background levels; also recorded: stained Aβ1-40 amyloid less well"}]}
{"compound": "Thio-Aβ: Recombinant fusion protein of thioredoxin with the cysteine-flanked DWGKGGRWRLWPGASGKTEA (SEQ ID NO:2) peptide (PAECDWGKGGRWRLWPGASGKTEACGPPY; cysteine pairing not given here; also: recombinant fusion with thioredoxin, carrier left off)", "values": [{"measurement": "concentration at which binding to Aβ1-40 amyloid is saturating", "setting": "Aβ1-40 amyloid", "value": 200, "unit": "nM"}, {"measurement": "lowest concentration giving positive staining of amyloid plaques", "setting": "[4]; AD brain sections", "value": 100, "unit": "nM"}, {"measurement": "staining of neurofibrillary tangles", "setting": "[4]; AD brain sections", "value": "not evident"}, {"measurement": "staining of amyloid plaques in AD brain", "setting": "[4]; paraffin sections of AD brain", "value": "heavily stained amyloid plaques from AD brains; also recorded: bound specifically to amyloid plaques in AD brains; also recorded: confirmed in brains from multiple AD subjects"}, {"measurement": "staining of normal brain", "setting": "[4]; paraffin sections of normal (non-AD) brain", "value": "did not stain any structures in normal brain tissue; also recorded: did not bind to normal brain samples; also recorded: negative in multiple non-AD controls"}]}
